For the data set the following is noted: 298.15 K, 101.33 kPa, Liquid; for viscosity: Capillary tube (Ostwald / Ubbelohde) method; for speed of sound: Sing-around technique in a fixed-path interferometer; for mass density: Vibrating tube method.

Four compounds from the NIST ThermoML archive (doi:10.1016/j.jct.2013.10.025) can be followed below.

± gives the expanded uncertainty stated by the source.

Regarding `C1CCOC1` [tetrahydrofuran], the viscosity turned out to be 0.474 mPa·s, the speed of sound came out at 1280.1 ± 1.5 m/s and the mass density stood at 882.15 ± 0.23 kg/m3.
For `CCCCCCO` [hexan-1-ol] the same measures were 4.436 ± 0.36 mPa·s, 1303.5 ± 1.5 m/s and 815.295 ± 0.24 kg/m3.
The matching figures for `CCCCCCCCCCO` [decan-1-ol]: 10.61 ± 0.37 mPa·s, 1379.3 ± 1.6 m/s and 826.407 ± 0.24 kg/m3.
Turning to `CCCCCCCCO` [octan-1-ol], the viscosity came out at 7.446 ± 0.36 mPa·s, the speed of sound worked out at 1347.9 ± 1.5 m/s and the mass density came out at 821.837 ± 0.24 kg/m3.
